In US20230212116A1, “SARS-COV-2 MAIN PROTEASE INHIBITORS” (TEXAS A&M UNIVERSITY SYSTEM, priority 2020, published 2023):

Each compound was assayed against SARS-CoV-2 M^Pro (Severe acute respiratory syndrome coronavirus 2, UniProt P0DTD1) (assay: biochemical). Conditions: not given.
Assay type: biochemical
Work on `CC(C)C[C@H](NC(=O)OCc1ccccc1)C(=O)NN(CCC(N)=O)C(=O)Oc1ccc(F)cc1` [MPI47, 4-fluorophenyl 1-(3-amino-3-oxopropyl)-2-(((benzyloxy)carbonyl)-L-leucyl)hydrazine-1-carboxylate] yielded an IC50 of 1.04 µM.
`C=CC(=O)N(CCC(N)=O)NC(=O)[C@H](CC(C)C)NC(=O)[C@@H](NC(=O)OCc1ccccc1)[C@@H](C)OC(C)(C)C` [MPI50, benzyl ((2S,3R)-1-(((S)-1-(2-acryloyl-2-(3-amino-3-oxopropyl)hydrazineyl)-4-methyl-1-oxopentan-2-yl)amino)-3-(tert-butoxy)-1-oxobutan-2-yl)carbamate] was tested, and the IC50 was 0.109 µM.
`CC(C)C[C@H](NC(=O)OCc1ccccc1)C(=O)NN(CCC(N)=O)C(=O)OCC(F)(F)F` [MPI46, 2,2,2-trifluoroethyl 1-(3-amino-3-oxopropyl)-2-(((benzyloxy)carbonyl)-L-leucyl)hydrazine-1-carboxylate] gave an IC50 of over 10 µM.

Same assay, conditions: 20 nM enzyme (10 nM for MPI3), 10 μM substrate, 37° C., 30 min enzyme-inhibitor incubation
In the case of `CC(C)[C@H](NC(=O)OCc1ccccc1)C(=O)N[C@@H](Cc1cccs1)C(=O)N[C@H](C=O)C[C@@H]1CCNC1=O` [MPI13, Benzyl ((S)-3-methyl-1-oxo-1-(((S)-1-oxo-1-(((S)-1-oxo-3-((S)-2-oxopyrrolidin-3-yl)propan-2-yl)amino)-3-(thiophen-2-yl)propan-2-yl)amino)butan-2-yl)carbamate], the “Enzymatic IC50” value is reported as “(insoluble)”.

Same assay, conditions: read-out: Enzymatic IC50
Compound `CC(C)C[C@H](NC(=O)[C@@H](NC(=O)OCc1ccccc1)C(C)C)C(=O)N[C@@H](C[C@@H]1CCNC1=O)C(O)C#N` (stereo partly drawn) [MPI66, benzyl ((2S)-1-(((2S)-1-(((2S)-1-cyano-1-hydroxy-3-((S)-2-oxopyrrolidin-3-yl)propan-2-yl)amino)-4-methyl-1-oxopentan-2-yl)amino)-3-methyl-1-oxobutan-2-yl)carbamate] has an IC50 of 0.0188 ± 0.0008 µM.
With `C[C@@H](OC(C)(C)C)[C@H](NC(=O)OCc1ccccc1)C(=O)N[C@@H](CC1CCCCC1)C(=O)N[C@@H](C[C@@H]1CCNC1=O)C(=O)C(N)=O` [MPI86, benzyl ((2S,3R)-1-(((S)-1-(((S)-4-amino-3,4-dioxo-1-((S)-2-oxopyrrolidin-3-yl)butan-2-yl)amino)-3-cyclohexyl-1-oxopropan-2-yl)amino)-3-(tert-butoxy)-1-oxobutan-2-yl)carbamate] the IC50 was 0.167 ± 0.014 µM.
Work on `C[C@@H](OC(C)(C)C)[C@H](NC(=O)OCc1ccccc1)C(=O)N[C@@H](CC1CCCCC1)C(=O)N[C@@H](C[C@@H]1CCNC1=O)C(O)S(=O)(=O)O` (stereo partly drawn) [MPI65, sodium (5S,8S,11S)-5-((R)-1-(tert-butoxy)ethyl)-8-(cyclohexylmethyl)-12-hydroxy-3,6,9-trioxo-11-(((S)-2-oxopyrrolidin-3-yl)methyl)-1-phenyl-2-oxa-4,7,10-triazadodecane-12-sulfonate] yielded an IC50 of 0.294 ± 0.015 µM.
For `C[C@@H](OC(C)(C)C)[C@H](NC(=O)OCc1cccc(F)c1)C(=O)N[C@@H](CC1CCCCC1)C(=O)N[C@H](C=O)C[C@@H]1CCNC1=O` [MPI102, 3-fluorobenzyl ((2S,3R)-3-(tert-butoxy)-1-(((S)-3-cyclohexyl-1-oxo-1-(((S)-1-oxo-3-((S)-2-oxopyrrolidin-3-yl)propan-2-yl)amino)propan-2-yl)amino)-1-oxobutan-2-yl)carbamate], the IC50 was 0.307 µM.
Compound `CC(C)C[C@H](NC(=O)OCc1ccccc1)C(=O)NN(CCC(N)=O)C(=O)c1cc([N+](=O)[O-])ccc1F` [MPI41, benzyl (S)-(1-(2-(3-amino-3-oxopropyl)-2-(2-fluoro-5-nitrobenzoyl)hydrazineyl)-4-methyl-1-oxopentan-2-yl)carbamate] has an IC50 of 39 µM.
`CC(C)[C@H](NC(=O)NC(C)(C)C)C(=O)N[C@@H](CC1CC1)C(=O)N[C@H](C=O)C[C@@H]1CCNC1=O` [MPI64, (S)-2-(3-(tert-butyl)ureido)-N-((S)-3-cyclopropyl-1-oxo-1-(((S)-1-oxo-3-((S)-2-oxopyrrolidin-3-yl)propan-2-yl)amino)propan-2-yl)-3-methylbutanamide] gave an IC50 of 0.0261 ± 0.0014 µM.
`C=C(Cc1ccccc1)C(=O)N(CCC(N)=O)NC(=O)[C@H](CC(C)C)NC(=O)OCc1ccccc1` [MPI42, benzyl (S)-(1-(2-(3-amino-3-oxopropyl)-2-(2-benzylacryloyl)hydrazineyl)-4-methyl-1-oxopentan-2-yl)carbamate] showed an IC50 of over 10 µM.
With `C=CC(=O)N(CCC(N)=O)NC(=O)[C@@H]1[C@@H]2[C@H](CN1C(=O)[C@@H](NC(=O)NC(C)(C)C)[C@@H](C)OC(C)(C)C)C2(C)C` [MPI70, 3-(1-acryloyl-2-((1R,2S,5S)-3-(O-(tert-butyl)-N-(tert-butylcarbamoyl)-L-threonyl)-6,6-dimethyl-3-azabicyclo[3.1.0]hexane-2-carbonyl)hydrazineyl)propanamide] the IC50 was 0.136 ± 0.017 µM.
`C[C@@H](OC(C)(C)C)[C@H](NC(=O)OCc1ccc(F)cc1)C(=O)N[C@@H](CC1CCCCC1)C(=O)N[C@H](C=O)C[C@@H]1CCNC1=O` [MPI103, 4-fluorobenzyl ((2S,3R)-3-(tert-butoxy)-1-(((S)-3-cyclohexyl-1-oxo-1-(((S)-1-oxo-3-((S)-2-oxopyrrolidin-3-yl)propan-2-yl)amino)propan-2-yl)amino)-1-oxobutan-2-yl)carbamate] showed an IC50 of 0.196 ± 0.031 µM.
`C=CC(=O)N(CCC(N)=O)NC(=O)[C@H](CC1CCCCC1)NC(=O)[C@@H](NC(=O)OCc1ccccc1)[C@@H](C)OC(C)(C)C` [MPI52, benzyl ((2S,3R)-1-(((S)-1-(2-acryloyl-2-(3-amino-3-oxopropyl)hydrazineyl)-3-cyclohexyl-1-oxopropan-2-yl)amino)-3-(tert-butoxy)-1-oxobutan-2-yl)carbamate] showed an IC50 of 0.061 ± 0.0012 µM.
`C=CC(=O)N(C[C@@H]1CCC(=O)N1)NC(=O)[C@@H]1[C@@H]2[C@H](CN1C(=O)[C@@H](NC(=O)NC(C)(C)C)[C@@H](C)OC(C)(C)C)C2(C)C` [MPI69, 1-((2S,3R)-1-((1R,2S,5S)-2-(2-acryloyl-2-(((S)-5-oxopyrrolidin-2-yl)methyl)hydrazine-1-carbonyl)-6,6-dimethyl-3-azabicyclo[3.1.0]hexan-3-yl)-3-(tert-butoxy)-1-oxobutan-2-yl)-3-(tert-butyl)urea] showed an IC50 of over 2 µM.
In the case of `CC(C)(C)NC(=O)N[C@H](C(=O)N1C[C@H]2[C@@H]([C@H]1C(=O)N[C@@H](C[C@@H]1CCNC1=O)C(=O)C(=O)NCc1ccccc1)C2(C)C)C(C)(C)C` [MPI63, (1R,2S,5S)-N-((S)-4-(benzylamino)-3,4-dioxo-1-((S)-2-oxopyrrolidin-3-yl)butan-2-yl)-3-((S)-2-(3-(tert-butyl)ureido)-3,3-dimethylbutanoyl)-6,6-dimethyl-3-azabicyclo[3.1.0]hexane-2-carboxamide], the IC50 is reported as 0.103 ± 0.0015 µM.
`C=CC(=O)N(CCC(N)=O)NC(=O)[C@H](CC(C)C)NC(=O)OCc1ccccc1` [MPI38, benzyl (S)-(1-(2-acryloyl-2-(3-amino-3-oxopropyl)hydrazineyl)-4-methyl-1-oxopentan-2-yl)carbamate] gave an IC50 of 0.64 µM.
`CCC(=O)N(CCC(N)=O)NC(=O)[C@H](CC(C)C)NC(=O)OCc1ccccc1` [MPI36, benzyl (S)-(1-(2-(3-amino-3-oxopropyl)-2-propionylhydrazineyl)-4-methyl-1-oxopentan-2-yl)carbamate] was tested, and the IC50 was over 10 µM.
Work on `CC(C)C[C@H](NC(=O)OCc1ccccc1)C(=O)NN(CCC(N)=O)C(=O)[C@H](C)Cl` [MPI40, benzyl ((S)-1-(2-(3-amino-3-oxopropyl)-2-((S)-2-chloropropanoyl)hydrazineyl)-4-methyl-1-oxopentan-2-yl)carbamate] yielded an IC50 of 1.62 ± 0.153 µM.
With `CC(C)C[C@H](NC(=O)OCc1ccccc1)C(=O)NN(CCC(N)=O)C(=O)COc1ccc([N+](=O)[O-])cc1` [MPI44, benzyl (S)-(1-(2-(3-amino-3-oxopropyl)-2-(2-(4-nitrophenoxy)acetyl)hydrazineyl)-4-methyl-1-oxopentan-2-yl)carbamate] the IC50 was over 10 µM.
With `CC(C)C[C@H](NC(=O)OCc1ccccc1)C(=O)NN(CCC(N)=O)C(=O)[C@@H](C)Cl` [MPI39, benzyl ((S)-1-(2-(3-amino-3-oxopropyl)-2-((R)-2-chloropropanoyl)hydrazineyl)-4-methyl-1-oxopentan-2-yl)carbamate] the IC50 was 5.038 ± 0.013 µM.
`C=CC(=O)N(Cc1cc(=O)[nH]c(=O)[nH]1)NC(=O)[C@H](CC(C)C)NC(=O)[C@@H](NC(=O)OCc1ccccc1)C(C)C` [MPI35, benzyl ((S)-1-(((S)-1-(2-acryloyl-2-((2,6-dioxo-1,2,3,6-tetrahydropyrimidin-4-yl)methyl)hydrazineyl)-4-methyl-1-oxopentan-2-yl)amino)-3-methyl-1-oxobutan-2-yl)carbamate] showed an IC50 of 4.28 ± 0.278 µM.
In the case of `CC(C)C[C@H](NC(=O)OCc1ccccc1)C(=O)NN(CCC(N)=O)C(=O)COc1ccc(F)cc1` [MPI45, benzyl (S)-(1-(2-(3-amino-3-oxopropyl)-2-(2-(4-fluorophenoxy)acetyl)hydrazineyl)-4-methyl-1-oxopentan-2-yl)carbamate], the IC50 is reported as over 10 µM.
`C[C@@H](OC(C)(C)C)[C@H](NC(=O)OCc1ccccc1)C(=O)N[C@@H](CC1CCCCC1)C(=O)NN(CCC(N)=O)C(=O)CCl` [MPI53, benzyl ((2S,3R)-1-(((S)-1-(2-(3-amino-3-oxopropyl)-2-(2-chloroacetyl)hydrazineyl)-3-cyclohexyl-1-oxopropan-2-yl)amino)-3-(tert-butoxy)-1-oxobutan-2-yl)carbamate] showed an IC50 of 0.189 µM.
For `C[C@@H](OC(C)(C)C)[C@H](NC(=O)NC(C)(C)C)C(=O)N1C[C@H]2[C@@H]([C@H]1C(=O)N[C@H](C=O)C[C@@H]1CCNC1=O)C2(C)C` [MPI68, (1R,2S,5S)-3-(O-(tert-butyl)-N-(tert-butylcarbamoyl)-L-threonyl)-6,6-dimethyl-N-((S)-1-oxo-3-((S)-2-oxopyrrolidin-3-yl)propan-2-yl)-3-azabicyclo[3.1.0]hexane-2-carboxamide], the IC50 was 0.097 µM.
Work on `C=CC(=O)N(CCC(N)=O)NC(=O)[C@H](CC(C)C)NC(=O)[C@@H](NC(=O)OCc1ccccc1)C(C)C` [MPI51, benzyl ((S)-1-(((S)-1-(2-acryloyl-2-(3-amino-3-oxopropyl)hydrazineyl)-4-methyl-1-oxopentan-2-yl)amino)-3-methyl-1-oxobutan-2-yl)carbamate] yielded an IC50 of 0.036 µM.
`CC(C)C[C@H](NC(=O)OCc1ccccc1)C(=O)NN(CCC(N)=O)C(=O)CCl` [MPI37, benzyl (S)-(1-(2-(3-amino-3-oxopropyl)-2-(2-chloroacetyl)hydrazineyl)-4-methyl-1-oxopentan-2-yl)carbamate] showed an IC50 of 0.064 µM.
